Read-outs that look alike come from different tables or passages of the source. Non-standard residues stand in square brackets, D forms with d. Residues, ends and D or L forms follow the SMILES beside them. Chg = N[C@H](C(=O)O)C1CCCCC1; Tle = CC(C)(C)[C@H](N)C(=O)O; Dab = NCC[C@H](N)C(=O)O; Aib = CC(C)(N)C(=O)O
Legend:
[1] = biological target: T1, human PSD95-PDZ3 (Homo sapiens, UniProt P78352); assay: binding ELISA with Biotin-PDZ3; details: plate coated with 2 µM test compound, Biotin-PDZ3 titrated; read-out: EC50 (PDZ3)
T1 construct: PDZ3 (309-401, Flag-His-Avitag-TEVsite tag); made in house
Source text: The three PDZ domains in the PSD95 protein are structurally similar. Binding to the PDZ1 and PDZ2 domains can effectively block PSD95-mediated neuroexcitotoxicity. However, the biological function of binding to the PDZ3 domain is unclear. Therefore, to avoid potential safety concerns, this test example assessed the selectivity of polypeptide compounds for the PDZ2 and PDZ3 domains, aiming to identify polypeptide compounds that specifically bind to the PDZ2 domain. The expression and purification of PSD95-PDZ3 protein were carried out with reference to the steps in 3.1.2. The amino acid sequence of PDZ3 protein: […] Site-specifically biotinylated Biotin-PDZ2 and Biotin-PDZ3 proteins were used for binding ELISA assays. […] After the blocking was complete, the blocking solution was discarded, and the plate was washed three times with PBST buffer. […] After the incubation was complete, the reaction solutions in the microplate were discarded, and the plate was washed three times with PBST. 100 μL of HRP-SA secondary antibody (diluted at 1:2000) was added to each well, and the plate was incubated at 37 °C for 1 h. After the plate was washed three times with PBST, 100 μL of TMB chromogenic substrate was added. […] The absorbance at 450 nm was measured using a SpectraMax M5 microplate reader, and the binding EC50 values of the test compounds to Biotin-PDZ2 or Biotin-PDZ3 were calculated using GraphPad Prism 9. […] The abilities of polypeptide compounds to bind to human PSD95-PDZ2 and human PSD95-PDZ3

[2] = pharmacokinetic study in rats, single intravenous bolus injection; assay type: in vivo, SD rats; details: rats, intravenous bolus injection over 10 min, 3 nmol/g, n = 3
Experimental: With male SD rats as test animals, the pharmacokinetic behavior of polypeptide compounds administered via single intravenous bolus injection in rats (plasma) was studied.
Male SD rats weighing 170 to 200 grams and aged 4-6 weeks were purchased from Beijing Vital River Laboratory Animal Technology Co., Ltd. The polypeptide compounds were dissolved in 1× PBS, and the polypeptide compound solutions were then administered via intravenous bolus injection over 10 min at a dose of 3 nmol/g, with three animals per group. At each of the time points of 2 min, 8 min, 15 min, 30 min, 45 min, 60 min, and 120 min after the end of bolus injection, 0.2 mL of blood was collected and transferred to an EDTA-K2 anticoagulation centrifuge tube. The whole blood sample was centrifuged at 4 °C at 4000 g for 5 min, and a plasma sample was obtained by separation and cryopreserved at -80 °C.
The pharmacokinetic parameters of polypeptide compound 22, administered via intravenous bolus injection, in rats were determined using a similar method, with the difference being that an enzyme inhibitor was added immediately after blood collection.
The plasma concentrations of the test compounds were determined using the method in Test Example 3.4.3. Plasma concentration-time curves were plotted, and the pharmacokinetic parameters were calculated using PKSolver software. The experimental results are shown in Table 5-1, Table 5-2, and FIG. 3.

[3] = biological target: T2, human PSD95-PDZ2 (Homo sapiens, UniProt P78352); assay: binding ELISA with Biotin-PDZ2; details: for EC50: plate coated with 2 µM test compound, Biotin-PDZ2 titrated, read-out: EC50 (PDZ2); for Specificity for PDZ2 (PDZ3/PDZ2): ratio PDZ3/PDZ2
T2 construct: PDZ2 (155-249, the Flag-His-Avitag-TEVsite tag is italicized); made in house; host or cells: E. coli BL21-DE3 (PET vector)
Source text: The three PDZ domains in the PSD95 protein are structurally similar. Binding to the PDZ1 and PDZ2 domains can effectively block PSD95-mediated neuroexcitotoxicity. However, the biological function of binding to the PDZ3 domain is unclear. Therefore, to avoid potential safety concerns, this test example assessed the selectivity of polypeptide compounds for the PDZ2 and PDZ3 domains, aiming to identify polypeptide compounds that specifically bind to the PDZ2 domain. Site-specifically biotinylated Biotin-PDZ2 and Biotin-PDZ3 proteins were used for binding ELISA assays. […] After the blocking was complete, the blocking solution was discarded, and the plate was washed three times with PBST buffer. […] After the incubation was complete, the reaction solutions in the microplate were discarded, and the plate was washed three times with PBST. 100 µL of HRP-SA secondary antibody (diluted at 1:2000) was added to each well, and the plate was incubated at 37 °C for 1 h. After the plate was washed three times with PBST, 100 µL of TMB chromogenic substrate was added. […] The absorbance at 450 nm was measured using a SpectraMax M5 microplate reader, and the binding EC50 values of the test compounds to Biotin-PDZ2 or Biotin-PDZ3 were calculated using GraphPad Prism 9. […] The abilities of polypeptide compounds to bind to human PSD95-PDZ2 and human PSD95-PDZ3
Target sequence in this assay (P78352 155-249): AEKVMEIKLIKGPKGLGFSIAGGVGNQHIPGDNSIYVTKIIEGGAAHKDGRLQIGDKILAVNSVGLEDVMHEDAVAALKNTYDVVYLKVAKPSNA

[4] = biological target: T2, human PSD95-PDZ2; assay: competitive ELISA, affinity for human PSD95-PDZ2; assay type: binding; details: for IC50: competitive ELISA against 0.3 µM Biotin-NA-1, error of this test within three times, read-out: IC50; for rIC50: ratio of the affinity of the polypeptide compound to the affinity of NA-1
Source text: The objective of this test example was to determine the affinities of polypeptide compounds for human PSD95-PDZ2 using competitive ELISAs.
The amino acid sequence of PDZ2 protein was designed using human PSD95 (Uniprot Entry: P78352) as a template for PDZ: PDZ2 (155-249, the Flag-His-Avitag-TEVsite tag is italicized and was subsequently used for purification and biotinylation): […]
[…] (SEQ ID NO. 62). The PDZ2 gene was constructed onto a PET expression vector, and induced expression was performed using BL21-DE3 E. coli cells under conditions of 37 °C and 1 mM IPTG 4 h. Then centrifugation was performed at 10,000 g at 4 °C for 10 min, and the cell pellets were collected, resuspended in 1× PBS solution, and then lysed using a homogenizer. The lysate was centrifuged at high speed, and the supernatant was collected and filtered through a 0.45 µm membrane. A Ni-Sepharose affinity column was equilibrated with 5 column volumes of a 20 mM phosphate buffer (pH 8.0). The sample was centrifuged at high speed to remove impurities and loaded onto the column for binding. The column was rinsed with the 20 mM phosphate buffer until the A280 reading dropped to the baseline. Gradient elution was then performed with the 20 mM phosphate buffer and 0-500 mM imidazole. A protein was collected, and whether it was the target protein was determined. The purified sample described above was buffer-exchanged into 1× PBS solution, and the resulting solution was concentrated to a volume of 2 mL and further purified using a Superdex200 gel chromatography column (GE) equilibrated with 1× PBS. The target peak was collected and aliquoted for later use.
PSD95-PDZ2 (the tag was removed by TEV enzyme) was diluted with 1× PBS buffer to 1 µg/mL, added to a 96-well microplate (Corning, 9018, 25/box 96-well clear flat bottom plate) at 100 µL/well, and left to stand overnight at 4 °C for 16-20 h. After the liquid was discarded, the plate was washed three times with PBST (pH 7.4, 0.05% Tween-20) buffer, and a 4% BSA blocking solution diluted with PBST buffer was then added (300 µL/well). The plate was blocked by incubation in an incubator at 37 °C for 1 h. After the blocking was complete, the blocking solution was discarded, and the plate was washed three times with PBST buffer. Biotin-NA-1, at a constant concentration of 0.3 µM, and the test compounds, having a starting concentration of 100 µM and serially diluted ten-fold with PBS buffer to seven concentrations (100, 10, 1, 0.1, 0.01, 0.001, 0.0001, and 0 µM), were then added, and the plate was incubated in an incubator at 37 °C for 1 h. After the incubation was complete, the reaction solutions in the microplate were discarded, and the plate was washed three times with PBST. 100 µL of HRP-SA secondary antibody (diluted at 1:2000) was added to each well, and the plate was incubated at 37 °C for 1 h. After the plate was washed three times with PBST, 100 µL of TMB chromogenic substrate was added. The plate was incubated at room temperature for 1-3 min, and 100 µL of 1 M sulfuric acid was added to stop the reaction.
The absorbance at 450 nm was measured using a SpectraMax M5 microplate reader, and non-linear fitting was performed using GraphPad Prism 9 to calculate the binding IC50 values of the test compounds to PSD95-PDZ2 protein.

T1 sequence (P78352 309-401): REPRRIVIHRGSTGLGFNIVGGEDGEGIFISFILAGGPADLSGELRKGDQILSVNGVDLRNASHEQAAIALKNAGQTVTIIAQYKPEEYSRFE

Compound	EC50 [1]	AUC(0-inf) ([2]; male, SD, rat, plasma)	MRT ([2]; male, SD, rat, plasma)	AUC(0-t) ([2]; male, SD, rat, plasma, read-out: AUC(0-t))	Cmax ([2]; male, SD, rat, plasma, read-out: Cmax)	half-life ([2]; male, SD, rat, plasma, read-out: T1/2 (converted))	AUClast/dose [2]	EC50 [3]	IC50 [4]	Specificity for PDZ2 (PDZ3/PDZ2) [3]	rIC50 [4]	AUC(0-t) [2]	AUC(inf) [2]	Cmax [2]	MRTO-inf [2]	T1/2 [2]	selectivity for the PSD95-PDZ2 domain ([3]; PDZ2 versus PDZ3, conclusion in words)
CC(C)[C@H](NC(=O)[C@H](CC(=O)O)NC(=O)[C@H](CO)NC(=O)[C@@H](NC(=O)[C@@H](NC(=O)[C@@H](NC(=O)[C@H](CCN)NC(=O)C(C)(C)NC(=O)CNC(=O)[C@@H](CCCNC(=N)N)NC(=O)[C@@H](CCCNC(=N)N)NC(=O)[C@@H](CCCNC(=N)N)NC(=O)[C@@H](CCC(N)=O)NC(=O)[C@@H](CCCNC(=N)N)NC(=O)[C@@H](CCCNC(=N)N)NC(=O)[C@@H](CCCCN)NC(=O)[C@@H](CCCCN)NC(=O)[C@@H](CCCNC(=N)N)NC(=O)CNC(=O)[C@H](N)Cc1ccc(O)cc1)[C@@H](C)O)C1CCCCC1)C(C)(C)C)C(=O)O [Polypeptide compound 19, y-G-r-k-k-r-r-q-r-r-r-G-Aib-Dab-T-Chg-Tle-S-D-V] (H-[dY]G[dR][dK][dK][dR][dR][dQ][dR][dR][dR]G[Aib][Dab]T[Chg][Tle]SDV-OH)	> 1000 µM	11800 ng·h/mL	57.6 min	10200 ng·h/mL	19600 ng/mL	43.8 min	1345	0.029 µM	0.612 µM	–	–	–	–	–	–	–	–
CC(C)[C@H](NC(=O)[C@H](CC(=O)O)NC(=O)[C@@H](NC(=O)[C@@H](NC(=O)[C@@H](NC(=O)[C@@H](NC(=O)CNC(=O)[C@@H](CCCNC(=N)N)NC(=O)[C@@H](CCCNC(=N)N)NC(=O)[C@@H](CCCNC(=N)N)NC(=O)[C@@H](CCC(N)=O)NC(=O)[C@@H](CCCNC(=N)N)NC(=O)[C@@H](CCCNC(=N)N)NC(=O)[C@@H](CCCCN)NC(=O)[C@@H](CCCCN)NC(=O)[C@@H](CCCNC(=N)N)NC(=O)CNC(=O)[C@H](N)Cc1ccc(O)cc1)[C@@H](C)O)C(C)(C)C)C(C)(C)C)[C@@H](C)O)C(=O)O [Polypeptide compound 20, y-G-r-k-k-r-r-q-r-r-r-G-T-Tle-Tle-T-D-V] (H-[dY]G[dR][dK][dK][dR][dR][dQ][dR][dR][dR]GT[Tle][Tle]TDV-OH)	3.23 µM	–	–	–	–	–	–	0.015 µM	0.763 µM	215	0.84	–	–	–	–	–	–
CC(C)[C@H](NC(=O)[C@H](CC(=O)O)NC(=O)[C@H](CO)NC(=O)[C@@H](NC(=O)[C@@H](NC(=O)[C@@H](NC(=O)CNC(=O)[C@@H](CCCNC(=N)N)NC(=O)[C@@H](CCCNC(=N)N)NC(=O)[C@@H](CCCNC(=N)N)NC(=O)[C@@H](CCC(N)=O)NC(=O)[C@@H](CCCNC(=N)N)NC(=O)[C@@H](CCCNC(=N)N)NC(=O)[C@@H](CCCCN)NC(=O)[C@@H](CCCCN)NC(=O)[C@@H](CCCNC(=N)N)NC(=O)CNC(=O)[C@H](N)Cc1ccc(O)cc1)[C@@H](C)O)C1CCCCC1)C(C)(C)C)C(=O)O [Polypeptide compound 21, y-G-r-k-k-r-r-q-r-r-r-G-T-Chg-Tle-S-D-V] (H-[dY]G[dR][dK][dK][dR][dR][dQ][dR][dR][dR]GT[Chg][Tle]SDV-OH)	> 1000 µM	–	–	–	–	–	745	0.018 µM	0.8 µM	>10000	0.88	5660 ng·h/mL	6396 ng·h/mL	15643 ng/mL	48 min	43.2 min	comparable to that of the positive drugs NA-1 and NoNO42

From patent EP4650362A1, “NEUROPROTECTIVE PSD-95 POLYPEPTIDE INHIBITOR AND USE THEREOF” (Beijing Tuo Jie Biopharmaceutical Co. Ltd., priority 2023, dated 2024)
